Key:
[1] = tested on: Leishmania donovani axenic amastigote parasites; test: Leishmania donovani axenic amastigote proliferation assay; type: cell-based; conditions: axenic amastigotes in vitro, read-out: L. donovani amastigotes EC50
How it was run: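 EC50 values come from CellTiter-Glo luminescence after 2-day compound exposure of axenic amastigotes (9600 per well) at 37 °C, 5% CO2. Medium: RPMI 1640, 20% heat-inactivated FBS, folic acid, adenosine, D-glucose, 25 mM MES, adjusted to pH 5.5.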

[2] = tested on: L. donovani HU3 strain in mouse peritoneal macrophages; test: Assay for proliferation of Leishmania parasites in mouse peritoneal macrophages; type: cell-based, Leishmania donovani; conditions: Leishmania donovani, Peritoneal macrophage, read-out: L. donavani Macrophage EC50
How it was run: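 EC50 derives from counting SYBR Green-stained parasite nuclei by high-content imaging after 5 days' compound exposure. Host cells were uninfected BALB/c peritoneal macrophages, infected for 24 h before dosing with spleen-derived L. donovani HU3 parasites from mice infected 9–11 weeks.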

[3] = tested on: Trypanosoma brucei Lister 427 strain bloodstream form; test: Assay for proliferation of kinetoplastid parasite Trypanosoma brucei; type: cell-based; conditions: Lister 427 bloodstream form, 48 hours, read-out: T. brucei EC50
How it was run: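 Bloodstream-form T. brucei Lister 427 in HMI-9 medium was exposed to compound (DMSO vehicle) for 48 hours at 37° C, 5% CO2. Parasite growth was read as ATP by CellTiter-Glo luminescence, with EC50 calculated from percent inhibition.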

[4] = tested on: Trypanosoma cruzi amastigotes (Tulahuen strain) cultured in 3T3 fibroblast cells; test: Assay for proliferation of kinetoplastid parasite Trypanosoma cruzi; type: cell-based; conditions: 144 h, Tulahuen amastigotes in 3T3 fibroblast cells, 6 day incubation, read-out: T cruzi EC50
Source text: Assay for Proliferation of Kinetoplastid Parasite Trypanosoma cruzi.
Compounds of the invention can be assayed to measure their capacity to inhibit proliferation of kinetoplastid parasite Trypanosoma cruzi. The screening procedure is for identifying compounds with inhibitor activity against Trypanosoma cruzi amastigotes cultured in 3T3 fibroblast cells. The assay is done using the mammalian stage (amastigotes) of T. cruzi that replicates in the intracellular space of host cells. The host cells are initially infected with the culture-derived trypomastigotes that rapidly invade and then divide as amastigotes. The protocol uses the Tulahuen strain of T. cruzi that has been engineered to express the E. coli beta-galactosidase gene (Lac-Z) (Antimicr. Agents Chemoth. 40:2592, 1996). This allows for a colorimetric readout by using the substrate CPRG and an absorbance plate reader.
3T3 fibroblast cells are re-suspended in RPMI-1640 medium without phenol red medium supplemented with 10% FBS (heat inactivated), 100 μg/ml penicillin, and 100 μg/ml streptomycin. Forty μL of suspension (1,000 cells) is dispensed into 384-well plates and incubated overnight at 37° C. temperature and in atmosphere containing 5% CO2. The following day, 100 nL of compounds of the invention in DMSO are added to plate wells containing 3T3 cells. At the same time control compounds (benznidazole and nifurtimox) and DMSO are added to plates to serve as the positive and negative controls, respectively. After that, 10 μL of media containing 10,000 T. cruzi trypomastigotes are added to each plate well and plates are placed back into incubators. After 6 day incubation, 10 μL of reagent solution (0.6 mM CPRG, 0.6% NP-40 in PBS) is added to plates and incubated at room temperature for 2 hours. Absorbance is then measured on SpectraMax Gemini […] to determine relative number of T. cruzi cells present in each plate well. The percentage inhibition of 50%, EC50, is calculated for each compound. […] Typically, the EC50 is 10 μM or less.

SMILES: Cc1cnc2nc(-c3cc(NC(=O)c4cc(Cl)ccc4Cl)ccc3Cl)[nH]c2c1 [Compound 98]
- EC50 [1]: 16.7 µM
- EC50 [2]: 23.5 µM
- EC50 [3]: 2.91 µM
- EC50 [4]: 1.18 µM

SMILES: Cc1cnc2nc(-c3cc(NC(=O)c4cccc(N5CCCCC5)c4)ccc3Cl)[nH]c2c1 [Compound 99]
- EC50 [1]: > 25 µM
- EC50 [2]: > 50 µM
- EC50 [3]: 6.3 µM
- EC50 [4]: 5.5 µM

SMILES: Cc1cnc2nc(-c3cc(NC(=O)c4ccc[nH]4)ccc3Cl)[nH]c2c1 [Compound 100]
- EC50 [1]: 6.3 µM
- EC50 [2]: 6.4 µM
- EC50 [3]: 1.42 µM
- EC50 [4]: 2.17 µM

SMILES: Cc1cnc2nc(-c3cc(NC(=O)c4ccc(C)[nH]4)ccc3Cl)[nH]c2c1 [Compound 124]
- EC50 [1]: > 25 µM
- EC50 [2]: 13.8 µM
- EC50 [3]: > 25 µM
- EC50 [4]: > 14.3 µM

SMILES: Cc1cnc2nc(-c3cc(NC(=O)Cc4ccc(F)cc4)ccc3Cl)[nH]c2c1 [Compound 125]
- EC50 [1]: > 25 µM
- EC50 [2]: 8.6 µM
- EC50 [3]: 10 µM
- EC50 [4]: 9.6 µM

SMILES: Cc1cnc2nc(-c3cc(NC(=O)c4ccc(C)o4)ccc3Cl)[nH]c2c1 [Compound 126]
- EC50 [1]: 1.6 µM
- EC50 [2]: 1.63 µM
- EC50 [3]: 0.303 µM
- EC50 [4]: 0.148 µM

SMILES: Cc1cnc2nc(-c3cc(NC(=O)c4cnc[nH]4)ccc3Cl)[nH]c2c1 [Compound 128]
- EC50 [1]: > 25 µM
- EC50 [2]: > 50 µM
- EC50 [3]: > 25 µM
- EC50 [4]: > 20 µM

SMILES: Cc1cnc2nc(-c3cc(NC(=O)C4CCCCO4)ccc3Cl)[nH]c2c1 (stereo not shown) [Compound 131]
- EC50 [1]: 22.1 µM
- EC50 [2]: > 50 µM
- EC50 [3]: 5.1 µM
- EC50 [4]: 6.8 µM

SMILES: COc1cccc(C(=O)Nc2ccc(Cl)c(-c3nc4ncc(C)cc4[nH]3)c2)c1 [Compound 134]
- EC50 [1]: 21.4 µM
- EC50 [2]: 13.9 µM
- EC50 [3]: 0.89 µM
- EC50 [4]: 2.59 µM

SMILES: Cc1cnc2nc(-c3cc(NC(=O)c4cnc(Cl)cn4)ccc3Cl)[nH]c2c1 [Compound 135]
- EC50 [1]: > 25 µM
- EC50 [2]: > 25.9 µM
- EC50 [3]: > 1.51 µM
- EC50 [4]: > 20 µM

SMILES: Cc1cnc2nc(-c3cc(NC(=O)C4CCCO4)ccc3Cl)[nH]c2c1 (stereo not shown) [Compound 138]
- EC50 [1]: > 25 µM
- EC50 [2]: > 50 µM
- EC50 [3]: > 25 µM
- EC50 [4]: > 20 µM

SMILES: COc1ccc(C(=O)Nc2ccc(Cl)c(-c3nc4ncc(C)cc4[nH]3)c2)c(OC)c1 [Compound 147]
- EC50 [1]: > 25 µM
- EC50 [2]: 8.8 µM
- EC50 [3]: 3.6 µM
- EC50 [4]: 2.41 µM

SMILES: Cc1cnc2nc(-c3cc(NC(=O)Cc4ccncc4)ccc3Cl)[nH]c2c1 [Compound 148]
- EC50 [1]: > 25 µM
- EC50 [2]: > 50 µM
- EC50 [3]: > 24.6 µM
- EC50 [4]: > 20 µM

SMILES: Cc1cnc2nc(-c3cc(NC(=O)c4ccccc4Cl)ccc3Cl)[nH]c2c1 [Compound 149]
- EC50 [1]: > 25 µM
- EC50 [2]: 9.2 µM
- EC50 [3]: 10.9 µM
- EC50 [4]: 0.55 µM

SMILES: Cc1cnc2nc(-c3cc(NC(=O)c4ccccc4N(C)C)ccc3Cl)[nH]c2c1 [Compound 150]
- EC50 [1]: > 25 µM
- EC50 [2]: 22.8 µM
- EC50 [3]: 12.1 µM
- EC50 [4]: 8.9 µM

SMILES: Cc1cnc2nc(-c3cc(NC(=O)c4cccn4C)ccc3Cl)[nH]c2c1 [Compound 151]
- EC50 [1]: 17.1 µM
- EC50 [2]: 19.5 µM
- EC50 [3]: 1.83 µM
- EC50 [4]: 3.7 µM

SMILES: Cc1cnc2nc(-c3cc(NC(=O)c4ccc(Cl)s4)ccc3Cl)[nH]c2c1 [Compound 152]
- EC50 [1]: > 25 µM
- EC50 [2]: 4.5 µM
- EC50 [3]: 5.6 µM
- EC50 [4]: > 11.5 µM

SMILES: Cc1cnc2nc(-c3cc(NC(=O)C4CCCCN4)ccc3Cl)[nH]c2c1 (stereo not shown) [Compound 171]
- EC50 [1]: > 25 µM
- EC50 [2]: > 50 µM
- EC50 [3]: > 7.5 µM
- EC50 [4]: 7.5 µM

SMILES: Cc1cnc2nc(-c3cc(NC(=O)c4nccnc4O)ccc3Cl)[nH]c2c1 [Compound 174]
- EC50 [1]: > 25 µM
- EC50 [2]: > 50 µM
- EC50 [3]: > 25 µM
- EC50 [4]: > 20 µM

— patent US9233961B2, “Compounds and compositions for the treatment of parasitic diseases” (Novartis AG, priority 2013, dated 2016)
